Results reported in PMC4674339 (European journal of medicinal chemistry, 2015).
Like-named read-outs stand apart in the source and are kept apart here.

What was measured:
[1] = test system: ADP induced human platelet aggregation; test: ADP-induced human platelet aggregation, 96-well microplate method; type: cell-based
P2Y12 = conditions: read-out: EC50 toward P2Y12; functional assay; cited from earlier work
P2Y1 = conditions: read-out: EC50 toward P2Y1; functional assay; cited from earlier work
platelet P2X1 receptors [2] = biological target: T1, platelet P2X1 receptors (Homo sapiens, UniProt P51575); test: P2X1-mediated entry of extracellular Ca2+; type: cell-based
T1 sequence (P51575 1-399): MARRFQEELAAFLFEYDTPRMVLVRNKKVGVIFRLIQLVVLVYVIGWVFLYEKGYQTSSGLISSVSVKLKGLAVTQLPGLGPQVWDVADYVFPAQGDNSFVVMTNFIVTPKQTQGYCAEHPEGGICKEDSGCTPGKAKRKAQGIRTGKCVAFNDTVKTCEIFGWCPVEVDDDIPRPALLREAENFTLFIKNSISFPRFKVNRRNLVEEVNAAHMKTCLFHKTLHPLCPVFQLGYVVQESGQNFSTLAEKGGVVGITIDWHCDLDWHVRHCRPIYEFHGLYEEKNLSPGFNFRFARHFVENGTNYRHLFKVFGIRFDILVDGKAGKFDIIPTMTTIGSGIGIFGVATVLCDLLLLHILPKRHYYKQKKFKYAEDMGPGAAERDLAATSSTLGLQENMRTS

[3] = biological target: T2, human platelet P2Y12 receptors (Homo sapiens, UniProt Q9H244); test: P2Y12-mediated VASP phosphorylation assay; type: cell-based
T2 sequence (Q9H244 whole entry): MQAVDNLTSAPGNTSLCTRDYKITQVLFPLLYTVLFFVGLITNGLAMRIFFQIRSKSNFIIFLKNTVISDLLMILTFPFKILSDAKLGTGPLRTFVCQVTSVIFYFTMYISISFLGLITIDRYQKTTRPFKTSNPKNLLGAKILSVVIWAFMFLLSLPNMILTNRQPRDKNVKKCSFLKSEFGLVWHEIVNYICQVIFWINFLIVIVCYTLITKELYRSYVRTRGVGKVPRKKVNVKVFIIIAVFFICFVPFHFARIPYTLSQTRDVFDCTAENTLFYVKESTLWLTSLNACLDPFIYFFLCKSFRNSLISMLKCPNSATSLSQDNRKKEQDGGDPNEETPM

platelet P2X1 receptors [4] = biological target: T1, platelet P2X1 receptors; conditions: cited from earlier work
[5] = biological target: T2, human platelet P2Y12 receptors; conditions: cited from earlier work
[6] = biological target: human platelet P2Y1 receptors (Homo sapiens, UniProt P47900); conditions: read-out: P2Y1 inhibition IC50; cited from earlier work
Chain of human platelet P2Y1 receptors (P47900 whole entry): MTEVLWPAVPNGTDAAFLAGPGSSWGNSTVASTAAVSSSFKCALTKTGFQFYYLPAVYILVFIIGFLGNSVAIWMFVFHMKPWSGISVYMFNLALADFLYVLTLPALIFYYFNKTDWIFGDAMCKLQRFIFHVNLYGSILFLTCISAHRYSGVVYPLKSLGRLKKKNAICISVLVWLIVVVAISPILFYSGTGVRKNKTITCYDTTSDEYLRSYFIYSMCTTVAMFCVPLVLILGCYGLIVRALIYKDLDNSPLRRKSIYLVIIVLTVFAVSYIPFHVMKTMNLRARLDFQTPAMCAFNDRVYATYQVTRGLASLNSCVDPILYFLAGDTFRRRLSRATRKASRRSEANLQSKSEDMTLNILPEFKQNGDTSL

[7] = read-out: IC50, nM (95% Confidence Interval), no pre-incubation, 3 μM ADP
[8] = read-out: IC50, nM (95% Confidence Interval), pre-incubation with test compound, 5 μM ADP
[9] = read-out: IC50, nM (95% Confidence Interval), pre-incubation with test compound, 20 μM ADP

Molecule | IC50 [1, 7] [nM] | IC50 [1, 8] [nM] | IC50 [1, 9] [nM] | other results
CNc1ncnc2c1ncn2[C@@H]1O[C@H](COP(=O)(S)OP(=O)(O)C(Cl)P(=O)(O)OP(=O)(S)OC[C@H]2O[C@@H](n3cnc4c(NC)ncnc43)[C@H](O)[C@@H]2O)[C@@H](O)[C@H]1O (mixture of isomers) [Compound 13, P^1,P^4-di-(N^6-methyl-5′-adenosine) P^1,P^4-dithio-P^2,P^3-chloromethylenetetraphosphate] | 5870 | 10700 | 37200 | –
Nc1ncnc2c1ncn2[C@@H]1O[C@H](COP(=O)(O)OP(=O)(O)O)[C@@H](O)[C@H]1O [ADP, adenosine diphosphate] | – | – | – | EC50 (P2Y12): 69 nM; EC50 (P2Y1): 8000 nM
CCCNc1ncnc2c1ncn2[C@@H]1O[C@H](COP(=O)(S)OP(=O)(O)C(Cl)P(=O)(O)OP(=O)(S)OC[C@H]2O[C@@H](n3cnc4c(NCCC)ncnc43)[C@H](O)[C@@H]2O)[C@@H](O)[C@H]1O (mixture of isomers) [Compound 14, P^1,P^4-di-(N^6-propyl-5′-adenosine) P^1,P^4-dithio-P^2,P^3-chloromethylenetetraphosphate] | 3930 | 12000 | 22400 | activation at 1 µM (platelet P2X1 receptors [2]; read-out: P2X1 activation %±SEM): -0.01 ± 0.91%
CNc1nc(SC)nc2c1ncn2[C@@H]1O[C@H](COP(=O)([S-])OP(=O)([O-])C(Cl)P(=O)([O-])OP(=O)([S-])OC[C@H]2O[C@@H](n3cnc4c(NC)nc(SC)nc43)[C@H](O)[C@@H]2O)[C@@H](O)[C@H]1O.[Na+].[Na+].[Na+].[Na+] (mixture of isomers) [Compound 15, P^1,P^4-di-(2-methylthio-N^6-methyl-5′-adenosine) P^1,P^4-dithio-P^2,P^3-chloromethylenetetraphosphate] | 616 | – | – | P2X1 agonist activity (platelet P2X1 receptors [2]): effective P2X1 agonist
CCCCCSc1nc(N)c2ncn([C@@H]3O[C@H](COP(=O)(S)OP(=O)(O)C(Cl)P(=O)(O)OP(=O)(S)OC[C@H]4O[C@@H](n5cnc6c(N)nc(SCCCCC)nc65)[C@H](O)[C@@H]4O)[C@@H](O)[C@H]3O)c2n1 (mixture of isomers) [Compound 9, P^1,P^4-di-(2-pentylthio-5′-adenosine) P^1,P^4-dithio-P^2,P^3-chloromethylenetetraphosphate] | 1090 | 90.7 | 172 | –
2-methylthioadenosine 5′-diphosphate [Compound 2-MeSADP] | – | – | – | EC50 (P2Y12): 0.3 nM; EC50 (P2Y1): 6 nM
Nc1ncnc2c1ncn2[C@@H]1O[C@H](COP(=O)(O)OP(=O)(O)OP(=O)(O)OP(=O)(O)OC[C@H]2O[C@@H](n3cnc4c(N)ncnc43)[C@H](O)[C@@H]2O)[C@@H](O)[C@H]1O [Ap4A, P^1,P^4-Di(adenosine-5′) tetraphosphate] | – | – | – | P2X1 agonist activity (platelet P2X1 receptors [4]): effective P2X1 receptor agonist; P2Y12 antagonist character [5]: partial antagonist; IC50 ([5]; read-out: P2Y12 inhibition IC50): > 250000 nM; IC50 [6]: 32500 nM
CNc1ncnc2c1ncn2[C@H]1C[C@H](OP(=O)(O)O)[C@@H](COP(=O)(O)O)O1 [MRS2179, reference compound] | – | – | – | P2Y12 inhibition IC50±SEM ([3]; 3 μM ADP, VASP phosphorylation, human blood): Not inhibitor

The next lines start with results.

IC50 [1, 7] [nM] | IC50 [1, 8] [nM] | IC50 [1, 9] [nM] | Molecule | other results
87.8 | 173 | 936 | Nc1nc(Br)nc2c1ncn2[C@@H]1O[C@H](COP(=O)(S)OP(=O)(O)C(Cl)P(=O)(O)OP(=O)(S)OC[C@H]2O[C@@H](n3cnc4c(N)nc(Br)nc43)[C@H](O)[C@@H]2O)[C@@H](O)[C@H]1O (mixture of isomers) [Compound 11, P^1,P^4-di-(2-bromo-5′-adenosine) P^1,P^4-dithio-P^2,P^3-chloromethylenetetra-phosphate] | –
33.1 | 8.89 | 32.6 | CSc1nc(N)c2ncn([C@@H]3O[C@H](COP(=O)(O)OP(=O)(O)C(Cl)P(=O)(O)OP(=O)(O)OC[C@H]4O[C@@H](n5cnc6c(N)nc(SC)nc65)[C@H](O)[C@@H]4O)[C@@H](O)[C@H]3O)c2n1 (some centres unmarked) [Compound 4, P^1,P^4-di-(2-methylthio-5′-adenosine) P^2,P^3-chloromethylenetetraphosphate] | –
61.8 | 70.3 | 731 | CSc1nc(N)c2ncn([C@@H]3O[C@H](COP(=O)(S)OP(=O)(O)OP(=O)(O)OP(=O)(S)OC[C@H]4O[C@@H](n5cnc6c(N)nc(SC)nc65)[C@H](O)[C@@H]4O)[C@@H](O)[C@H]3O)c2n1 (mixture of isomers) [Compound 3, P^1,P^4-di-(2-methylthio-5′-adenosine) P^1,P^4-dithiotetraphosphate] | –
46.1 | 8.48 | 13.4 | CCSc1nc(N)c2ncn([C@@H]3O[C@H](COP(=O)(S)OP(=O)(O)C(Cl)P(=O)(O)OP(=O)(S)OC[C@H]4O[C@@H](n5cnc6c(N)nc(SCC)nc65)[C@H](O)[C@@H]4O)[C@@H](O)[C@H]3O)c2n1 (mixture of isomers) [Compound 6, P^1,P^4-di-(2-ethylthio-5′-adenosine) P^1,P^4-dithio-P^2,P^3-chloromethylenetetraphosphate] | –
140 | 369 | 2690 | Nc1nc(Cl)nc2c1ncn2[C@@H]1O[C@H](COP(=O)(S)OP(=O)(O)C(Cl)P(=O)(O)OP(=O)(S)OC[C@H]2O[C@@H](n3cnc4c(N)nc(Cl)nc43)[C@H](O)[C@@H]2O)[C@@H](O)[C@H]1O (mixture of isomers) [Compound 10, P^1,P^4-di-(2-chloro-5′-adenosine) P^1,P^4-dithio-P^2,P^3-chloromethylenetetra-phosphate] | –
113 | 23.4 | 44.6 | CCCSc1nc(N)c2ncn([C@@H]3O[C@H](COP(=O)(S)OP(=O)(O)C(Cl)P(=O)(O)OP(=O)(S)OC[C@H]4O[C@@H](n5cnc6c(N)nc(SCCC)nc65)[C@H](O)[C@@H]4O)[C@@H](O)[C@H]3O)c2n1 (mixture of isomers) [Compound 7, P^1,P^4-di-(2-propylthio-5′-adenosine) P^1,P^4-dithio-P^2,P^3-chloromethylenetetraphosphate] | –
71.3 | 1020 | 3950 | CSc1nc(N)c2ncn([C@@H]3O[C@H](COP(=O)([O-])OP(=O)([O-])OP(=O)([O-])OP(=O)([O-])OC[C@H]4O[C@@H](n5cnc6c(N)nc(SC)nc65)[C@H](O)[C@@H]4O)[C@@H](O)[C@H]3O)c2n1.[Na+].[Na+].[Na+].[Na+] [Compound 2, P^1,P^4-di-(2-Methylthio-5′-adenosine) tetraphosphate] | P2Y12 antagonist character [3]: full antagonist
295 | – | – | CSc1nc(N)c2ncn([C@@H]3O[C@H](COP(=O)(S)OP(=O)(O)C(Cl)(Cl)P(=O)(O)OP(=O)(S)OC[C@H]4O[C@@H](n5cnc6c(N)nc(SC)nc65)[C@H](O)[C@@H]4O)[C@@H](O)[C@H]3O)c2n1 (mixture of isomers) [Compound 16, P^1,P^4-di-(2-methylthio-5′-adenosine) P^1,P^4-dithio-P^2,P^3-dichloromethylenetetraphosphate] | –
49.9 | 48.5 | 416 | Nc1nc(I)nc2c1ncn2[C@@H]1O[C@H](COP(=O)(S)OP(=O)(O)C(Cl)P(=O)(O)OP(=O)(S)OC[C@H]2O[C@@H](n3cnc4c(N)nc(I)nc43)[C@H](O)[C@@H]2O)[C@@H](O)[C@H]1O (mixture of isomers) [Compound 12, P^1,P^4-di-(2-iodo-5′-adenosine) P^1,P^4-dithio-P^2,P^3-chloromethylenetetra-phosphate] | –
144 | 15 | 26.6 | Nc1nc(SCCC(F)(F)F)nc2c1ncn2[C@@H]1O[C@H](COP(=O)(S)OP(=O)(O)C(Cl)P(=O)(O)OP(=O)(S)OC[C@H]2O[C@@H](n3cnc4c(N)nc(SCCC(F)(F)F)nc43)[C@H](O)[C@@H]2O)[C@@H](O)[C@H]1O (mixture of isomers) [Compound 8, P^1,P^4-di-(2-(3,3,3-trifluoropropylthylthio)-5′-adenosine) P^1,P^4-dithio-P^2,P^3-chloromethylenetetraphosphate] | –
437 | 757 | 7680 | Nc1ncnc2c1ncn2[C@@H]1O[C@H](COP(=O)(S)OP(=O)(O)C(Cl)P(=O)(O)OP(=O)(S)OC[C@H]2O[C@@H](n3cnc4c(N)ncnc43)[C@H](O)[C@@H]2O)[C@@H](O)[C@H]1O (mixture of isomers) [Compound 1, reference compound] | –
